# From publication PMC5596366, “Cytotoxicity and genotoxicity of stilbene derivatives in CHO-K1 and HepG2 cell lines” (Genetics and Molecular Biology, 2017)
# Entries after “also recorded” stand apart in the source; their conditions may differ.
# Assays:
# HepG2 cells [1] = assay: Cytokinesis-block micronucleus assay (CBMN); type: cell-based; details: for nuclear bridges (NB): HepG2; for mean micronucleus (MN) frequency: 24 h
# Experimental: (§1) CHO-K1 and HepG2 cells were obtained from the Cell Bank of Rio de Janeiro (BCRJ code 0069 and 0103, respectively) and cultured in complete medium containing DMEM+F10 nutrient mixture (1:1, v/v), supplemented with fetal bovine serum (10%, v/v) and penicillin/streptomycin stabilized solution (10 mL/L). Cell cultures were incubated at 37 °C with atmosphere saturated with 5% of CO2. All experiments were conducted between the 3rd and the 8th passages and three experimental repetitions were performed.
# (§2) Doxorubicin (DOX) was dissolved in ultrapure sterile water in a stock solution of 900 μM. All reagents were dissolved prior to use and protected from light. For all experiments, cells were submitted to 24 h treatment with different concentrations of the tested substance and DOX was used as positive control in CHO-K1 cells. Benzo(a)pyrene [B(a)P] at 25 μM was used as positive control in HepG2 cells.
# (§3) For the micronucleus test, 10^6 cells were seeded in […] culture flasks containing complete medium. Cell cultures were allowed to grow for 24 h, then treated with different concentrations of the stilbene derivatives. Simultaneously, cytochalasin B (6 μg/mL) was added to each cell culture to inhibit cytokinesis. After 24 h of incubation, cells were harvested with a hypotonic treatment (KCl 0.075 M) and fixed twice with methanol:acetic acid (3:1). Thereafter, the cell suspension was smeared on pre-cleaned microscope slides and air-dried. Staining was performed during 15 min with Giemsa at 5% in Sorensen Buffer (v/v). Microscope slides were washed in tap water and allowed to dry at room temperature overnight. The frequency of micronucleus (MN), frequency of binucleated cells with micronucleus (BCMN) and frequency of nucleoplasmic bridges (NB) were obtained by the analysis of 1000 binucleated cell/culture/treatment as previously described by [Fenech (2000)]. A total of 500 cells/culture/treatment were analyzed to determine the Nuclear Division Index (NDI) by scoring cells with 1, 2, 3 or 4 nuclei and using the formula: NDI= M1+2(M2)+3(M3)+4(M4)/N, where, M1–M4 stand for the number of cells with 1–4 nuclei and N is the total number of viable cells analyzed.
# CHO-K1 cells [2] = assay: Cytokinesis-block micronucleus assay (CBMN); type: cell-based; details: for mean micronucleus (MN) frequency: 24 h
# Experimental: as §1, §2, §3
# HT-29 xenografts = tested on: HT-29 xenografts; design: method as in Paul et al. (2010); details: HT-29 xenografts model of colon cancer; ref Paul et al. (2010); cited from earlier work
# [3] = design: method as in Paul et al. (2010); details: in vivo; ref Paul et al. (2010); cited from earlier work
# tubulin = tested on: tubulin; design: method as in Schneider et al. (2003); details: ref Schneider et al. (2003); cited from earlier work
# HepG2 cells [4] = assay: Clonogenic survival assay; type: cell-based; details: for survival fraction: 24 h treatment
# Experimental: as §1, §2
# (§4) The clonogenic assay was performed according to [Franken et al. (2006)]. Briefly, 200 cells/well were plated in 6 well plates containing 3 mL of complete medium. After 4 h of incubation at 37 °C, the cells were treated with different concentrations of the testing stilbenes for 24 h, then each well was washed with PBS 1X and complete medium was added. The cells were allowed to grow for 7–14 days at 37 °C and 5% of CO2, when colonies were visible. The colonies formed were fixed with methanol/acetic acid/water (1:1:8 v/v/v) and stained with Giemsa 5% (v/v) in Sorensen phosphate buffer (pH 6.8). The colonies were counted, and the cell survival fraction was calculated as percent colonies relative to the untreated control.
# CHO-K1 cells [5] = assay: Clonogenic survival assay; type: cell-based; details: for survival fraction: 24 h treatment
# Experimental: as §1, §2, §4
# [6] = Cell viability assay (XTT), 24 h treatment; type: cell-based
# Experimental: as §1, §2
# To determine cell viability, 10^4 cells/well were seeded on a 96-well plate. […] The plates were washed twice in phosphate buffer saline (PBS 1X) and incubated for 4 h at 37 °C with DMEM without phenol red and supplemented with the reagents of the Cell Proliferation Kit (XTT) as recommended by the manufacturer. Total absorbance was measured at 492 and 690 nm (reference) using a microplate reader (ASYS, Eugendorf, Salzburg, Austria).
# [7] = tested on: CHO-K1 and HepG2 cell lines; assay: Clonogenic survival assay, statements not split by cell line; details: based on clonogenic survival assay
# Experimental: as §1, §2
# The clonogenic assay was performed according to [Franken et al. (2006)]. Briefly, 200 cells/well were plated in 6 well plates containing 3 mL of complete medium. After 4 h of incubation at 37 °C, the cells were treated with different concentrations of the testing stilbenes for 24 h, then each well was washed with PBS 1X and complete medium was added. […] The colonies were counted, and the cell survival fraction was calculated as percent colonies relative to the untreated control.
# Caco-2 cells = tested on: Caco-2 cells; design: method as in Schneider et al. (2003); details: ref Schneider et al. (2003); cited from earlier work
# [8] = tested on: colon and intestinal tumors; design: method as in Schneider et al., 2001; details: Min mice; ref Schneider et al., 2001; cited from earlier work
# Colo 205 xenograft = tested on: Colo 205 xenograft; design: method as in Pan et al., 2008; details: Colo 205 xenograft model of colon cancer; ref Pan et al., 2008; cited from earlier work
# [9] = tested on: colonic aberrant crypt foci (ACF); design: method as in Suh et al., 2007; details: ref Suh et al., 2007; cited from earlier work
# [10] = Chinese hamster, CHO-K1, 7.8 μM (lowest concentration)
# [11] = human, HepG2, 7.8 μM (lowest concentration)
smiles,measurement,setting,value
"COc1ccc(/C=C\c2cc(OC)cc(OC)c2)cc1 [cis-TMS, (Z)-1,3-dimethoxy-5-(4-methoxystyryl)benzene]",nuclear bridges (NB),HepG2 cells [1],No significant induction
same,mean micronucleus (MN) frequency,"HepG2 cells [1]; HepG2, 0.125 μM",3.5 MN/100 cells
same,mean micronucleus (MN) frequency,"HepG2 cells [1]; HepG2, 0.5 μM",6.1 MN/100 cells
same,mean micronucleus (MN) frequency,"CHO-K1 cells [2]; CHO-K1, 0.125 μM",2.8 MN/100 cells
same,mean micronucleus (MN) frequency,"CHO-K1 cells [2]; CHO-K1, 0.5 μM",5.2 MN/100 cells
same,"effect on tumor (volume, weight) in vivo",HT-29 xenografts,not active in vivo
same,bioavailability,[3],low bioavailability
same,tubulin polymerization,tubulin,inhibited tubulin polymerization in a dose-dependent manner
same,survival fraction,"HepG2 cells [4]; HepG2, 0.078 μM",41.3%
same,survival fraction,"HepG2 cells [4]; HepG2, 0.156 μM",54.3%
same,survival fraction,"HepG2 cells [4]; HepG2, 0.3125 μM",16.9%
same,survival fraction,"HepG2 cells [4]; HepG2, 0.625 μM",6.2%
same,cells killed (clonogenic assay),"HepG2 cells [4]; HepG2, at 2.5, 5 and 10 μM",100%
same,survival fraction,"CHO-K1 cells [5]; CHO-K1, 0.078 μM",45.8%
same,survival fraction,"CHO-K1 cells [5]; CHO-K1, 0.156 μM",36.8%
same,survival fraction,"CHO-K1 cells [5]; CHO-K1, 0.3125 μM",13.9%
same,cells killed (clonogenic assay),"CHO-K1 cells [5]; CHO-K1, all concentrations tested (2.5 μM upwards)",100%
same,"viability at 24 h, 7.8 µM",[6]; [10],60.7%
same,"viability at 24 h, 7.8 µM",[6]; [11],49%
same,fold more cytotoxic than the amino and ester,[7],approximately 250 fold
same,fold more cytotoxic than trans-TMS,[7],128 fold
same,cell cycle effect in Caco-2 cells,Caco-2 cells,arrest of the cell cycle progression at the G2/M transition phase
Oc1ccc(/C=C/c2cc(O)cc(O)c2)cc1 [Resveratrol],prevention of formation of colon and intestinal tumors,[8],70%
"COc1ccc(/C=C/c2cc(OC)cc(OC)c2)cc1 [trans-TMS, (E)-1,3-dimethoxy-5-(4-methoxystyryl)benzene]",nuclear bridges (NB),HepG2 cells [1],No significant induction
same,"micronucleus (MN) frequency, result in words","HepG2 cells [1]; HepG2, all tested concentrations",significantly increased
same,"micronucleus (MN) frequency, result in words","CHO-K1 cells [2]; CHO-K1, all concentrations, compared to NC",no significant MN frequency
same,"effect on tumor (volume, weight) in vivo",HT-29 xenografts,significantly reduced tumor volume; also recorded: significantly decreased tumor volume and weight
same,serum levels,[3],much higher serum levels than the cis-TMS
same,concentration from which colony formation is significantly reduced,HepG2 cells [4]; HepG2 (stated for both cell lines),5 µM
same,"frequency of survival fraction, result in words","HepG2 cells [4]; HepG2, 2.5-20 μM",significant concentration-dependent reduction
same,concentration from which colony formation is significantly reduced,CHO-K1 cells [5]; CHO-K1 (stated for both cell lines),5 µM
same,"frequency of survival fraction, result in words","CHO-K1 cells [5]; CHO-K1, 2.5-20 μM",significant concentration-dependent reduction
same,"viability at 24 h, 7.8 µM",[6]; [10],62.5%
same,"viability at 24 h, 7.8 µM",[6]; [11],59.1%
same,tumor growth,Colo 205 xenograft,significantly reduced tumor growth
same,fold less effective in inhibiting the growth of Caco-2 cells than the cis isomer,Caco-2 cells,100 fold
COc1cc(/C=C/c2ccc(O)cc2)cc(OC)c1 [pterostilbene],formation of azoxymethane-induced colonic aberrant crypt foci (ACF),[9],reduced the formation
